Reference: US20230348578A1, “CONFORMATION-SPECIFIC ANTIBODIES THAT BIND TAU PROTEIN AND USES THEREOF” (Beth Israel Deaconess Medical Center, Inc., priority 2020, published 2023)
Where a SMILES comes first, the peptide text is derived from it. The star is where a group is joined. Cbz = O=C(OCc1ccccc1)*; CH2F = FC*

Tested on: primary neurons
Experiment: Death of primary neurons with purified cis P-tau
Type: cell-based

Compound: COC(=O)C[C@H](NC(=O)[C@H](C)NC(=O)[C@@H](NC(=O)OCc1ccccc1)C(C)C)C(=O)CF [Z-VAD-FMK] (Cbz-Val-Ala-Asp(OMe)-CH2F)
- death in primary neurons induced by purified cis P-tau: blocked
